Assay results taken from ChEMBL document CHEMBL5518248, “Design, Synthesis, and Biological Evaluation of Novel Arylomycins against Multidrug-Resistant Gram-Negative Bacteria” (J Med Chem, 2024).

Key:
Assay type in all cases: functional
Details in all cases: time 18-20 hrs
Klebsiella pneumoniae [1] = assay: Antibacterial activity against Klebsiella pneumoniae 15-5 assessed as inhibition of bacterial growth measured after 18 to 20 hrs by broth microdilution method
Escherichia coli [2] = assay: Antibacterial activity against Escherichia coli 14-2 assessed as inhibition of bacterial growth measured after 18 to 20 hrs by broth microdilution method
Escherichia coli [3] = assay: Antibacterial activity against Escherichia coli ATCC 35218 assessed as inhibition of bacterial growth measured after 18 to 20 hrs by broth microdilution method
Acinetobacter baumannii [4] = assay: Antibacterial activity against Acinetobacter baumannii 17-2 assessed as inhibition of bacterial growth measured after 18 to 20 hrs by broth microdilution method
Pseudomonas aeruginosa [5] = assay: Antibacterial activity against Pseudomonas aeruginosa 19-5 assessed as inhibition of bacterial growth measured after 18 to 20 hrs by broth microdilution method
Escherichia coli [6] = assay: Antibacterial activity against Escherichia coli 14-4 assessed as inhibition of bacterial growth measured after 18 to 20 hrs by broth microdilution method
Klebsiella pneumoniae [7] = assay: Antibacterial activity against Klebsiella pneumoniae 15-1 assessed as inhibition of bacterial growth measured after 18 to 20 hrs by broth microdilution method
Pseudomonas aeruginosa [8] = assay: Antibacterial activity against Pseudomonas aeruginosa 17-1 assessed as inhibition of bacterial growth measured after 18 to 20 hrs by broth microdilution method
Klebsiella pneumoniae [9] = assay: Antibacterial activity against Klebsiella pneumoniae 15-4 assessed as inhibition of bacterial growth measured after 18 to 20 hrs by broth microdilution method
Acinetobacter baumannii [10] = assay: Antibacterial activity against Acinetobacter baumannii 17-8 assessed as inhibition of bacterial growth measured after 18 to 20 hrs by broth microdilution method

Row | Compound | MIC (Klebsiella pneumoniae [1]) [µg/mL] | MIC (Escherichia coli [2]) [µg/mL] | MIC (Escherichia coli [3]) [µg/mL] | MIC (Acinetobacter baumannii [4]) [µg/mL] | MIC (Pseudomonas aeruginosa [5]) [µg/mL] | MIC (Escherichia coli [6]) [µg/mL] | MIC (Klebsiella pneumoniae [7]) [µg/mL] | MIC (Pseudomonas aeruginosa [8]) [µg/mL] | MIC (Klebsiella pneumoniae [9]) [µg/mL] | MIC (Acinetobacter baumannii [10]) [µg/mL]
1 | Cc1nc(-c2ccc(CSSC(C)(C)C)cc2)nc(C)c1C(=O)N[C@@H](CCN)C(=O)N(C)[C@@H]1C(=O)N[C@@H](C)C(=O)N[C@H](C(=O)NCC#N)Cc2ccc(OCCN)c(c2)-c2cc1ccc2OCCN.O=C(O)C(F)(F)F.O=C(O)C(F)(F)F.O=C(O)C(F)(F)F.O=C(O)C(F)(F)F | 0.125 | 0.06 | ≤ 0.03 | 0.5 | 4 | 0.06 | 0.125 | 4 | 0.125 | 0.5
2 | Cc1cc(-c2ncc(C(=O)N[C@@H](CCN)C(=O)N(C)[C@@H]3C(=O)N[C@@H](C)C(=O)N[C@H](C(=O)NCC#N)Cc4ccc(OCCN)c(c4)-c4cc3ccc4OCCN)c(C)n2)ccc1CSSC(C)(C)C.O=C(O)C(F)(F)F.O=C(O)C(F)(F)F.O=C(O)C(F)(F)F.O=C(O)C(F)(F)F | 0.25 | 0.125 | ≤ 0.03 | 1 | 4 | 0.06 | 0.125 | 4 | 0.25 | 1
3 | Cc1nc(-c2ccc(C(C)(C)C)cc2)ncc1C(=O)N[C@@H](CCN)C(=O)N(C)[C@@H]1C(=O)N[C@@H](C)C(=O)N[C@H](C(=O)NCS(=O)(=O)O)Cc2ccc(OCCN)c(c2)-c2cc1ccc2OCCN.Cl.Cl.Cl.Cl | 8 | 32 | 16 | > 64 | > 64 | 8 | 4 | > 64 | 16 | 
4 | Cc1nc(-c2ccc(C(C)(C)C)cc2)ncc1C(=O)N[C@@H](CCN)C(=O)N(C)[C@@H]1C(=O)N[C@@H](C)C(=O)N[C@H](C(=O)NOCC#N)Cc2ccc(OCCN)c(c2)-c2cc1ccc2OCCN.Cl.Cl.Cl.Cl | 1 | 0.5 | 0.5 | 32 | > 64 | 0.5 | 0.5 | > 64 | 2 | 
5 | Cc1nc(-c2ccc(C(C)(C)C)cc2)ncc1C(=O)N[C@@H](CCN)C(=O)N(C)[C@@H]1C(=O)N[C@@H](C)C(=O)N[C@H](C(=O)NCC(=O)O)Cc2ccc(OCCN)c(c2)-c2cc1ccc2OCCN.Cl.Cl.Cl.Cl | 1 | 1 | 1 | 64 | > 64 | 1 | 1 | > 64 | 2 | 
6 | Cc1nc(-c2ccc(C(C)(C)C)cc2)ncc1C(=O)N[C@@H](CCN)C(=O)N(C)[C@@H]1C(=O)N[C@@H](C)C(=O)N[C@H](C(=O)NCC#N)c2ccc(OCCN)c(c2)-c2cc1ccc2OCCN.Cl.Cl.Cl.Cl | 64 | 32 | 64 | > 64 | 32 | 32 | 64 | > 64 | > 64 | 
7 | Cc1nc(-c2ccc(C(C)(C)C)cc2)ncc1C(=O)N[C@@H](CCN)C(=O)N(C)[C@H]1Cc2ccc(OCCN)c(c2)-c2cc(ccc2OCCN)[C@@H](C(=O)NCC#N)NC(=O)[C@H](C)NC1=O.Cl.Cl.Cl.Cl | > 64 | > 64 | > 64 | > 64 | > 64 | > 64 | > 64 | > 64 | > 64 | 
8 | Cc1nc(-c2ccc(C(C)(C)C)cc2)ncc1C(=O)N[C@@H](CCN)C(=O)N(C)[C@@H]1C(=O)NCCC(=O)N[C@H](C(=O)NCC#N)Cc2ccc(OCCN)c(c2)-c2cc1ccc2OCCN.Cl.Cl.Cl.Cl | 64 | 16 | 16 | > 64 | > 64 | 16 | 32 | > 64 | 32 | 
